Values of other authors as cited in paper PMC12435690, “KYLO-0603, a novel liver-targeting, thyroid hormone receptor-β agonist for the inhibition of MASH progression” (PLOS One, 2025).
“And” between values parts separate entries of the source, which are not always exact repeats. Identical values can stand only once.

Tested on: THR-β over THR-α
Set-up: method as in PMID 38771485, PMID 33306682, PMID 9653548, PMID 32098589
Settings: in vitro THR competition assays ref [28],[47],[48],[49]; cited from earlier work

CC(C)c1cc(Oc2c(Cl)cc(-n3nc(C#N)c(=O)[nH]c3=O)cc2Cl)n[nH]c1=O [Resmetirom]
selectivity ratio for THR-β over THR-α: 12 and 17
